Data reported in article PMC10582335 (Frontiers in Pharmacology, 2023).
Read-outs that look alike come from different tables or passages of the source.

What was measured:
[1] = Pharmacokinetics of almonertinib in rats, alone and after multiple doses of rivaroxaban or apixaban; type: in vivo, Sprague-Dawley (SD) rats; conditions: for AUC(0-inf) / AUC(0-t) / Cmax / Tmax / CL/F / MRT last / MRT inf / Vd/F / half-life: male, Sprague-Dawley, rat, plasma, po, 15 mg/kg, mean ± SD, n = 6; for CL/F: read-out: CLz/F (converted); for MRT last: read-out: MRT0-t; for MRT inf: read-out: MRT0-∞; for Vd/F: read-out: Vz/F; for half-life: read-out: t1/2z (converted)
Protocol: Chromatographic separation was performed using an XSelect HSS T3 column (2.1 mm × 100 mm, 2.5 µm, Waters, Milford, MA, United States) at 40°C by gradient elution. The mobile phase consisted of water (A) and acetonitrile (0.1% formic acid, B). […] The flow rate was 0.35 mL min^−1, and the injection volume was 6 µL. The positive ion mode with multiple reaction detection was used. […] The mass spectrometer conditions, including delustering potential (DP) and collision energy (CE) of the compounds, are shown in Table 1. […] Protein precipitation was used to process the plasma samples. 5 μL of mixed IS working solution, 50 µL of the plasma samples, and 150 µL of acetonitrile were vortex-mixed for 1.0 min. […] The supernatant was transferred to a 96-well plate for sample analysis. […] (Beijing, China). […] The study was approved and supervised by the Animal Ethics Committee of Hebei General Hospital (Shijiazhuang, China) (No. 2023024). Adaptive feeding (sufficient food and water) was performed for 1 week before the experiment. […] All rats were fasted for 12 h before starting the experiments while still given water. Sixty healthy rats were randomly divided into ten groups (n = 6). […] Blood samples were centrifuged at 3,500 g for 10 min, and then the supernatant was gathered and stored in a −80°C refrigerator. After, rat intestine, kidney and liver tissues were harvested for molecular analysis on the ninth or fifth day after treatment with the corresponding drugs for each group. The tissues were placed immediately at −80°C. DAS 2.1.1 Software (Mathematical Pharmacology Professional Committee of China, Shanghai, China) was applied to calculate pharmacokinetic parameters using non-compartmental analysis. SPSS 25.0 statistical software (SPSS Inc., Chicago, IL, United States) was applied to statistically analyze the main pharmacokinetic parameters, including AUC, Cmax, Tmax, t1/2, CLz/F, Vz/F, and MRT.

[2] = design: method as in Frost et al., 2015; conditions: ref Frost et al., 2015, cited from earlier work
[3] = almonertinib 15 mg/kg after multiple doses of rivaroxaban (group 9) compared with group 3, rats
[4] = rats, oral almonertinib 15 mg/kg after apixaban 0.5 mg/kg for five days (group 10)
[5] = rats, oral almonertinib 15 mg/kg after rivaroxaban 2 mg/kg for five days (group 9)
[6] = rats, oral almonertinib 15 mg/kg alone (group 3, control solvent of rivaroxaban)
[7] = rats, oral almonertinib 15 mg/kg alone (group 4, control solvent of apixaban)

C=CC(=O)Nc1cc(Nc2nccc(-c3cn(C4CC4)c4ccccc34)n2)c(OC)cc1N(C)CCN(C)C [almonertinib, Almonertinib]
all the pharmacokinetic parameters of almonertinib, comparison with almonertinib alone ([1]; almonertinib 15 mg/kg after multiple doses of apixaban 0.5 mg/kg (group 10) compared with group 4, rats): no statistically significant difference
increase of Cmax of almonertinib ([1]; almonertinib 15 mg/kg after multiple doses of rivaroxaban (group 9) compared with almonertinib alone (group 3), rats): 1.26 fold
decrease of CLz/F of almonertinib [1, 3]: 81.1%
increase of AUC0-t of almonertinib [1, 3]: 1.17 fold
increase of AUC0-∞ of almonertinib [1, 3]: 1.17 fold
AUC(0-inf) [1, 4]: 293 ± 48.9 ng·h/mL
AUC(0-t) [1, 4]: 267 ± 51.9 ng·h/mL
Cmax [1, 4]: 42.1 ± 5.99 ng/mL
Tmax [1, 4]: 2.5 ± 1.18 h
CL/F [1, 4]: 877 mL/min/kg
MRT last [1, 4]: 6.49 ± 0.35 h
MRT inf [1, 4]: 9.31 ± 2.59 h
Vd/F [1, 4]: 522 ± 318 L/kg
half-life [1, 4]: 407 ± 249 min
AUC(0-inf) [1, 5]: 299 ± 150 ng·h/mL
AUC(0-t) [1, 5]: 299 ± 150 ng·h/mL
Cmax [1, 5]: 51.4 ± 24.9 ng/mL
Tmax [1, 5]: 3.17 ± 0.41 h
CL/F [1, 5]: 1040 mL/min/kg
MRT last [1, 5]: 5.15 ± 0.66 h
MRT inf [1, 5]: 5.15 ± 0.66 h
Vd/F [1, 5]: 244 ± 168 L/kg
half-life [1, 5]: 162 ± 46.8 min
AUC(0-inf) [1, 6]: 138 ± 31.3 ng·h/mL
AUC(0-t) [1, 6]: 138 ± 31.3 ng·h/mL
Cmax [1, 6]: 22.8 ± 4.76 ng/mL
Tmax [1, 6]: 2.17 ± 1.13 h
CL/F [1, 6]: 1880 mL/min/kg
MRT last [1, 6]: 5.03 ± 0.73 h
MRT inf [1, 6]: 5.03 ± 0.74 h
Vd/F [1, 6]: 331 ± 125 L/kg
half-life [1, 6]: 131 ± 63 min
AUC(0-inf) [1, 7]: 299 ± 46.8 ng·h/mL
AUC(0-t) [1, 7]: 281 ± 43.3 ng·h/mL
Cmax [1, 7]: 39.8 ± 8.12 ng/mL
Tmax [1, 7]: 1.83 ± 1.03 h
CL/F [1, 7]: 855 mL/min/kg
MRT last [1, 7]: 6.53 ± 0.97 h
MRT inf [1, 7]: 8.35 ± 3.38 h
Vd/F [1, 7]: 383 ± 316 L/kg
half-life [1, 7]: 324 ± 298 min

COc1ccc(-n2nc(C(N)=O)c3c2C(=O)N(c2ccc(N4CCCCC4=O)cc2)CC3)cc1 [apixaban, Apixaban]
increase in exposure to apixaban ([2]; combined with diltiazem): 1.4 fold
increase in exposure to apixaban ([2]; combined with ketoconazole): 2.0 fold
